According to patent publication US20120130699A1, “Method of molecular design and synthesis of therapeutic and preventive drugs” (priority 2010, published 2012):

Assays:
[1] = human, in vivo; cited from earlier work
[2] = rat, in vivo
[3] = comparative characteristics: ED50 and therapeutic index; details: LD50 in rats / ED50
[4] = tested on: cervical cancer; details: treatment of cervical cancer; cited from earlier work

In the case of `CN1CC[C@]23c4c5ccc(O)c4O[C@H]2[C@@H](O)C=C[C@H]3[C@H]1C5` [morphine], the average effectiveness [1] is listed as 75%.

For `CC(=O)O[C@@]12CO[C@@H]1C[C@H](O)[C@@]1(C)C(=O)[C@H](O)C3=C(C)[C@@H](OC(=O)[C@H](O)[C@@H](NC(=O)OC(C)(C)C)c4ccccc4)C[C@@](O)([C@@H](OC(=O)c4ccccc4)[C@H]21)C3(C)C` [Taxotere], the “Relative Therapeutic Index” value [2] was 1 and the “Therapeutic Index” value [3] was 3.42.

For alpha-interferon, the average effectiveness [4] is given as “about 15%”.
